Experimental findings from US9169315B2, “Heparin cofactor II fragments with anti-inflammatory and anti-coagulant activity” (XIMMUNE AB, priority 2009, dated 2015) are described below.

The test system of one assay is S. pyogenes. Type of assay: cell-based. As for the experimental part:
MIC assay was carried out by a microtiter broth dilution method as previously described in the NCSLA guidelines (Wiegand, I., Hilpert, K. & Hancock, R. E. Agar and broth dilution methods to determine the minimal inhibitory concentration (MIC) of antimicrobial substances. Nat Protoc 3, 163-175 (2008)). In brief, fresh overnight colonies were suspended to a turbidity of 0.5 units and further diluted in Mueller-Hinton broth (Becton Dickinson). For determination of MIC, peptides were dissolved in water at concentration 10 times higher than the required range by serial dilutions from a stock solution. Ten μl of each concentration was added to each corresponding well of a 96-well microtiter plate (polypropylene, Costar Corp.) and 90 μl of bacteria (1×10^5) in MH medium added. The plate was incubated at 37° C. for 16-18 h. MIC was taken as the lowest concentration where no visual growth of bacteria was detected.

The next assay has as its system P. aeruginosa 15159. The assay can be described thus: P. aeruginosa infection model (sepsis). Type of assay: in vivo, mice. On the procedure: Mice were inoculated with P. aeruginosa and KYE28 (0.5 mg) was administrated sc 1 h after infection. (A) Bacterial counts in the indicated organs were analyzed after a time period of 4, 8, and 12 h. (B) In parallel, the indicated cytokines were analyzed in blood.
(A) Bacterial counts in the indicated organs were analyzed after a time period of 12 h. (B) Effects on platelets, lymphocytes, monocytes and neutrohils are shown. (C) In parallel, the indicated cytokines were analyzed in blood. […]
(A) P. aeruginosa 15159 bacteria (in PBS, ˜2×10^4 or 2×10^8 cfu/ml) were kept on ice until injection. Hundred microliter of the bacterial suspension were injected intraperitoneally (ip) into C57/Bl6 mice. At ˜10 min after the bacterial injection, 0.5 mg of NLF20 or PBS alone was injected ip into the mice. Liver, spleen and kidney were harvested, placed on ice, homogenized, and colony-forming units (cfu) determined 12 h after infection. (B) In a similar infection model (2×10^8 cfu/ml of P. aeruginosa) intraperitoneal (ip) administration after 30 min was compared with subcutaneous injection (sc) after 1 h. 0.5 mg of NLF20 was used. […] Mice were injected intraperitoneally with P. aeruginosa as above followed by ip or sc administration of NLF20 (500 μg). Survival was followed for 7 days. […] (D) NLF20 effects on TNF-α and IL-10 were analyzed in blood. (E) Thrombocytes were analyzed in blood. Treatment with NLF20 (ip and sc) increased thrombocyte levels.
Animals were Housed Under Standard Conditions of Light and Temperature and Had free access to standard laboratory chow and water. P. aeruginosa 15159 bacteria were grown to logarithmic phase (OD620˜0.5), harvested, washed in PBS, diluted in the same buffer to 2×10^8 cfu/ml, and kept on ice until injection. Hundred microliter of the bacterial suspension was injected intraperitoneally (i.p.) into female bI6 mice. […] In order to study bacterial dissemination to target organs spleen, liver and kidney were harvested, placed on ice, homogenized, and colony-forming units determined. The P-value was determined using the Mann-Whitney U-test. Data from three independent experiments were pooled.
Animals were housed under standard conditions of light and temperature AND had free access to standard laboratory chow and water. P. aeruginosa 15159 bacteria were grown to logarithmic phase (OD620˜0.5), harvested, washed in PBS, diluted in the same buffer to 2×10^8 cfu/ml, and kept on ice until injection. Hundred microliter of the bacterial suspension was injected intraperitoneally (i.p.) into female bI6 mice. Immediately subsequent the bacterial injection, 0.5 mg NLF20 (in 10 mM Tris, pH 7.4) or buffer alone was injected i.p. into the mice. In order to study bacterial dissemination to target organs spleen, liver and kidney were harvested, placed on ice, homogenized, and colony-forming units determined. The P-value was determined using the Mann-Whitney U-test. Data from three independent experiments were pooled.

Setting [1] is: 0.5 mg sc 1 h after infection, particularly after 12 h.
Setting [2] is: sc 1 h, or 1 and 7 h after inoculation.

Entries after “also recorded” stand apart in the source; their conditions may differ. No end group written: not given here.

Consider NLFRKLTHRLFRRNFGYTLR [NLF20], for which the MIC in the assay with S. pyogenes stood at 2.5 µM. The “Bacterial cfu in organs” value in the assay on P. aeruginosa 15159 (0.5 mg given subcutaneously 1 h after infection) is “reductions in cfu”. For the same sequence, in the assay with P. aeruginosa 15159 (0.5 mg ip shortly after bacterial injection, 12 h), the “Bacterial numbers in spleen, liver and kidney” value was “significantly lower bacterial numbers in the spleen, liver, and kidney”. Moreover, in the assay with P. aeruginosa 15159 (ip and sc), the Thrombocytes in blood entry was “thrombocytes were increased”. Moreover, the IL-10 in blood entry in the assay on P. aeruginosa 15159 (ip and sc administration) is recorded as “showing an increase (both administrations)”. In the assay with P. aeruginosa 15159 (ip treatment), the TNF-α in blood entry is on record as “a reduction was noted after ip treatment”. For the same sequence, in the assay on P. aeruginosa 15159 (one dose (500 μg) ip, followed 7 days), the Mortality result is recorded as “significantly reduce mortality”. The Survival entry with P. aeruginosa 15159 (one dose (500 μg) sc, followed 7 days) is recorded as “prolong survival”; with P. aeruginosa 15159 (subcutaneous injection after 1 h and then every 24 h for the three following days (FIG. 21)), “significantly increases survival”.
In the assay on S. pyogenes, KYEITTIHNLFRKLTHRLFRRNFGYTLR [KYE28] came in with an MIC of 10 µM. The “Bacterial levels in spleen, kidney and liver” value in the assay with P. aeruginosa 15159 (0.5 mg sc 1 h after infection, 4, 8 and 12 h) is “did not significantly reduce bacterial levels”. Moreover, the IL-10 in blood entry in the assay on P. aeruginosa 15159 (0.5 mg sc 1 h after infection, after 12 h) is “not significantly modulated”. Moreover, in the assay with P. aeruginosa 15159 (setting [1]), the IFN-γ in blood entry is recorded as “concomitant reduction of cytokine levels”, the IL-6 in blood entry is “concomitant reduction of cytokine levels”, the MCP-1 in blood entry is given as “concomitant reduction of cytokine levels” and the TNF-α in blood entry is “concomitant reduction of cytokine levels”. In addition, the Survival result with P. aeruginosa 15159 (one dose, sc 1 h after inoculation) was “did not increase survival”. Further, the “Bacterial cfu in organs” value in the assay with P. aeruginosa 15159 (one dose, sc 1 h after inoculation, 12 h) was “did not significantly reduce bacterial cfu”. In addition, the “Bacterial cfu in organs” value with P. aeruginosa 15159 (repeated treatment, sc 1 and 7 h after inoculation, 12 h) is given as “moderate reduction of cfu numbers”. In the assay on P. aeruginosa 15159 (setting [2]), the Cytokines in blood entry is “dramatic and highly significant reduction of cytokines in blood”; the Platelets entry is on record as “slight, but significant increase in platelets”. The Survival / mortality entry in the assay on P. aeruginosa 15159 (two-dose regime, sc 1 and 7 h after infection) was “significantly reduced mortality; also recorded: significant delay of septic symptoms as well as delayed mortality, and eventually also increase in survival”.

As a reminder, the MIC is the least concentration at which growth counts as inhibited. Lower therefore signals inhibition by little substance.
